According to ChEMBL document CHEMBL4725375, “Total synthesis and a systematic structure-activity relationship study of WAP-8294A2” (2020):
Converted amounts (≈) assume the structure as drawn.

Tests used:
Staphylococcus aureus [1] = test: Antibacterial activity against Staphylococcus aureus ATCC 29213 by CLSI M07-A8 protocol based microdilution method; assay type: functional
Staphylococcus aureus [2] = test: Antibacterial activity against methicillin-resistant Staphylococcus aureus SA86 by CLSI M07-A8 protocol based microdilution method; assay type: functional

Compound | MIC (Staphylococcus aureus [1]) [µg/mL] | MIC (Staphylococcus aureus [2]) [µg/mL]
CC(C)CCC[C@@H]1CC(=O)N[C@@H](CO)C(=O)N[C@H](CC(N)=O)C(=O)N[C@@H](CO)C(=O)NCC(=O)N(C)[C@H](Cc2ccccc2)C(=O)N[C@@H](CC(C)C)C(=O)N[C@H](Cc2c[nH]cn2)C(=O)N[C@@H](CCC(=O)O)C(=O)N[C@H](CC(N)=O)C(=O)N[C@H](Cc2c[nH]c3ccccc23)C(=O)N[C@H](CCCN)C(=O)N(C)[C@@H](C(C)C)C(=O)O1 | 2 (≈ 1.27 µM) | 2 (≈ 1.27 µM)
CC(C)CCC[C@@H]1CC(=O)N[C@@H](CO)C(=O)N[C@H](CC(N)=O)C(=O)N[C@@H](CO)C(=O)NCC(=O)N(C)[C@H](Cc2ccccc2)C(=O)N[C@@H](CC(C)C)C(=O)N[C@H](CCCN)C(=O)N[C@@H](CCC(=O)O)C(=O)N[C@H](CC(N)=O)C(=O)N[C@H](Cc2c[nH]c3ccccc23)C(=O)N[C@H](Cc2c[nH]cn2)C(=O)N(C)[C@@H](C(C)C)C(=O)O1 | 2 (≈ 1.27 µM) | 2 (≈ 1.27 µM)
CC(C)CCC[C@@H]1CC(=O)N[C@@H](CO)C(=O)N[C@H](CC(N)=O)C(=O)N[C@@H](CO)C(=O)NCC(=O)N(C)[C@H](Cc2ccccc2)C(=O)N[C@@H](CC(C)C)C(=O)N[C@H](CCCN)C(=O)N[C@@H](CCC(=O)O)C(=O)N[C@H](CC(N)=O)C(=O)N[C@H](Cc2ccc(O)cc2)C(=O)N[C@H](CCCN)C(=O)N(C)[C@@H](C(C)C)C(=O)O1 | ≥ 32 | ≥ 32
CC(C)CCC[C@@H]1CC(=O)N[C@@H](CO)C(=O)N[C@H](CC(N)=O)C(=O)N[C@@H](CO)C(=O)NCC(=O)N(C)[C@H](Cc2ccccc2)C(=O)N[C@@H](CC(C)C)C(=O)N[C@H](CCCN)C(=O)N[C@@H](CCC(=O)O)C(=O)N[C@H](CC(N)=O)C(=O)N[C@H](Cc2c[nH]c3ccccc23)C(=O)N[C@H](CCCNC(=N)N)C(=O)N(C)[C@@H](C(C)C)C(=O)O1 | 1 (≈ 0.629 µM) | 2 (≈ 1.26 µM)
CC(C)CCC[C@@H]1CC(=O)N[C@@H](CO)C(=O)N[C@H](CC(N)=O)C(=O)N[C@@H](CO)C(=O)NCC(=O)N(C)[C@H](Cc2ccccc2)C(=O)N[C@@H](CC(C)C)C(=O)N[C@H](CCCNC(=N)N)C(=O)N[C@@H](CCC(=O)O)C(=O)N[C@H](CC(N)=O)C(=O)N[C@H](Cc2c[nH]c3ccccc23)C(=O)N[C@H](CCCN)C(=O)N(C)[C@@H](C(C)C)C(=O)O1 | 1 (≈ 0.629 µM) | 2 (≈ 1.26 µM)
CC(C)CCC[C@@H]1CC(=O)N[C@@H](CO)C(=O)N[C@H](CC(N)=O)C(=O)N[C@@H](CO)C(=O)NCC(=O)N(C)[C@H](Cc2ccccc2)C(=O)N[C@@H](CC(C)C)C(=O)N[C@H](CCCN)C(=O)N[C@@H](CCC(=O)O)C(=O)N[C@H](CC(N)=O)C(=O)N[C@H](Cc2ccccc2)C(=O)N[C@H](CCCN)C(=O)N(C)[C@@H](C(C)C)C(=O)O1 | ≥ 32 | ≥ 32
